According to article PMC5413024, “Mechanistic insights into the more potent effect of KP-54 compared to KP-10 in vivo” (PLoS ONE, 2017):
≈ marks a conversion by molar mass, not a printed value.

Experiments:
[1] = from the product data sheets; ref product data sheets (manufacturer); cited from earlier work
Procedure: KP-10 [human Metastin (45–54) amide, M-2816] was purchased from Sigma-Aldrich. KP-10 consists of the C-terminal 10-amino acids of KP-54. Human KP-54 was synthesized by the Advanced Biotechnology Centre, Imperial College, London, UK. BSA-FITC was purchased from Sigma (A9771). From the product data sheets, the solubility of KP-10 and KP-54 in water is 1mg/ml. We prepared stock solutions in sterile PBS at 100 μM, which is almost ten times lower than the solubility limit set by the manufacturer. The 100 μM stock solution was diluted in sterile PBS and 100 μl of the working solution was injected to ...

[2] = Study 4: pharmacokinetics of plasma kisspeptin after i.p. injection (radioimmunoassay); type: in vivo, mouse; conditions: male mice, 1 nmol i.p.
Procedure: Male mice received a single i.p. injection of 1 nmol KP-10 or 1 nmol KP-54. 100 μl of blood was collected from the lateral tail vein from groups of mice (n = 4) for each time point (0, 1 min, 2 min, 5 min, 10 min, 30 min, 60 min and 120 min). Terminal bleeds were collected from the vena cava. Blood was mixed with 5 μl EDTA, centrifuged at 10,000 x g for 10 min at 4°C to obtain the plasma fraction, and stored at -20°C until assayed. Kisspeptin concentrations were measured using an established in house competitive radioimmunoassay (RIA, [5]. Briefly, this RIA uses a sheep polyclonal antibody (GQ2), raised against human KP-54, which cross-reacts with human KP-54, KP-14 and KP-10.
3–5 month old wild-type (129S6/SvEv) male mice were used in this study. The mice were housed in open cages on a 12 hour light cycle (lights on at 0700 h) at a controlled temperature (22°C), and were provided with food and water ad libitum. All experiments were performed under the authority of a United Kingdom Home Office Project License and were approved by a Cambridge Animal Ethics Committee.

level at time molar at 0.5 h ([2]; 129S6/SvEv, mouse, plasma, ip, RIA, mean ± SEM, n = 4, read-out: plasma kisspeptin level at 30 min post-injection): 13.2 ± 4.36 nM | level at time molar at 1 h ([2]; 129S6/SvEv, mouse, plasma, ip, RIA, mean ± SEM, n = 4, read-out: plasma kisspeptin level at 60 min post-injection): 5.03 ± 0.787 nM | level at time molar at 2 h ([2]; 129S6/SvEv, mouse, plasma, ip, RIA, mean ± SEM, n = 4, read-out: plasma kisspeptin level at 120 min post-injection): 1.19 ± 0.33 nM | peak (maximum) plasma kisspeptin level ([2]; RIA (GQ2 antibody), mean ± SEM, n = 4 per time point): 12292 ± 2655 pmol/L | time of peak plasma kisspeptin level post-injection ([2]; RIA, n = 4 per time point): 5 min | plasma half-life ([2]; estimated from RIA plasma levels, RIA recognises all forms of Kp, may include breakdown products): around 32 min | fraction of the injected peptide entering the bloodstream after intraperitoneal injection ([2]; assuming a total blood volume of approximately 5 ml): ~6%
Compound: CC[C@H](C)[C@H](NC(=O)[C@H](CCC(N)=O)NC(=O)[C@H](CCCNC(=N)N)NC(=O)[C@H](CO)NC(=O)[C@H](Cc1c[nH]cn1)NC(=O)[C@@H]1CCCN1C(=O)[C@H](C)NC(=O)[C@H](CO)NC(=O)[C@H](CC(C)C)NC(=O)CNC(=O)[C@@H]1CCCN1C(=O)[C@H](CCC(N)=O)NC(=O)[C@H](CCC(N)=O)NC(=O)[C@H](CCCNC(=N)N)NC(=O)[C@H](CO)NC(=O)CNC(=O)[C@H](CO)NC(=O)[C@H](CO)NC(=O)[C@H](CCC(=O)O)NC(=O)[C@@H]1CCCN1C(=O)[C@@H]1CCCN1C(=O)[C@@H]1CCCN1C(=O)[C@H](CO)NC(=O)[C@H](CC(C)C)NC(=O)[C@H](CO)NC(=O)[C@@H](NC(=O)CN)[C@@H](C)O)C(=O)N1CCC[C@H]1C(=O)N[C@@H](C)C(=O)N1CCC[C@H]1C(=O)N[C@@H](CCC(N)=O)C(=O)NCC(=O)N[C@@H](C)C(=O)N[C@H](C(=O)N[C@@H](CC(C)C)C(=O)N[C@H](C(=O)N[C@@H](CCC(N)=O)C(=O)N[C@@H](CCCNC(=N)N)C(=O)N[C@@H](CCC(=O)O)C(=O)N[C@@H](CCCCN)C(=O)N[C@@H](CC(=O)O)C(=O)N[C@@H](CC(C)C)C(=O)N1CCC[C@H]1C(=O)N[C@@H](CC(N)=O)C(=O)N[C@@H](Cc1ccc(O)cc1)C(=O)N[C@@H](CC(N)=O)C(=O)N[C@@H](Cc1c[nH]c2ccccc12)C(=O)N[C@@H](CC(N)=O)C(=O)N[C@@H](CO)C(=O)N[C@@H](Cc1ccccc1)C(=O)NCC(=O)N[C@@H](CC(C)C)C(=O)N[C@@H](CCCNC(=N)N)C(=O)N[C@@H](Cc1ccccc1)C(N)=O)C(C)C)C(C)C [KP-54]
solubility in water [1]: 1000 µg/mL (≈ 171 µM)
